Measured values: patent US11427567B2, “Imidazolyl pyrimidinylamine compounds as CDK2 inhibitors” (Incyte Corporation, priority 2019, dated 2022)

Target: CDK2/Cyclin E1 (Homo sapiens (Human), UniProt P24941)
Test: CDK2/Cyclin E1 HTRF enzyme activity assay (Example A)
Format: biochemical
Details: 1 mM ATP
Description: Assays were conducted in white 384-well polystyrene plates in a final reaction volume of 8 μL. […] HTRF signals were read after 1 hour at room temperature on a PHERAstar FS plate reader (BMG Labtech). Data was analyzed with IDBS XLFit and GraphPad Prism 5.0 software using a three or four parameter dose response curve to determine IC50 for each compound.

Row | SMILES | IC50 [nM]
1 | CS(=O)(=O)N1CCC(Nc2ncc(C(F)(F)F)c(-c3cn(-c4ccc(Cn5nccn5)cc4Cl)cn3)n2)CC1 [Example 241, 4-(1-(4-((2H-1,2,3-Triazol-2-yl)methyl)-2-chlorophenyl)-1H-imidazol-4-yl)-N-(1-(methylsulfonyl)piperidin-4-yl)-5-(trifluoromethyl)pyrimidin-2-amine] | ≤ 50
2 | CS(=O)(=O)N1CC[C@@H](Nc2ncc(C(F)(F)F)c(-c3cn(-c4ccc(C#N)cc4Cl)cn3)n2)[C@H](F)C1 [Example 173, 3-Chloro-4-(4-(2-(((3R,4R)-3-fluoro-1-(methylsulfonyl)-piperidin-4-yl)-amino)-5-(trifluoro-methyl)pyrimidin-4-yl)-1H-imidazol-1-yl)benzonitrile] | ≤ 50
3 | Cc1c(-n2cnc(-c3nc(NC4CCN(S(=O)(=O)c5cn(C)cn5)CC4)ncc3C(F)(F)F)c2)ccnc1N [Example 9, 4-(1-(2-Amino-3-methylpyridin-4-yl)-1H-imidazol-4-yl)-N-(1-((1-methyl-1H-imidazol-4-yl)sulfonyl)piperidin-4-yl)-5-(trifluoromethyl)pyrimidin-2-amine] | ≤ 50
4 | CNCc1ccc(-n2cnc(-c3nc(N[C@H]4CCN(S(C)(=O)=O)C[C@H]4C)ncc3C(F)(F)F)c2)c(Cl)c1 [Example 182, 4-(1-(2-Chloro-4-((methylamino)methyl)phenyl)-1H-imidazol-4-yl)-N-((3R,4S)-3-methyl-1-(methylsulfonyl)piperidin-4-yl)-5-(trifluoromethyl)pyrimidin-2-amine] | ≤ 50
5 | Cc1nn(C)cc1-n1cnc(-c2nc(NC3CCN(S(C)(=O)=O)CC3)ncc2C(F)(F)F)c1 [Example 169, 4-(1-(1,3-Dimethyl-1H-pyrazol-4-yl)-1H-imidazol-4-yl)-N-(1-(methylsulfonyl)piperidin-4-yl)-5-(trifluoromethyl)pyrimidin-2-amine] | ≤ 50
6 | CS(=O)(=O)N1CCC(Nc2ncc(C(F)(F)F)c(-c3cn(-c4ccc5nccnc5c4C#N)cn3)n2)CC1 [Example 167, 6-(4-(2-((1-(Methylsulfonyl)piperidin-4-yl)amino)-5-(trifluoromethyl)pyrimidin-4-yl)-1H-imidazol-1-yl)quinoxaline-5-carbonitrile] | ≤ 50
7 | CS(=O)(=O)N1CCC(Nc2ncc(C(F)(F)F)c(-c3cn(-c4ccc(CN5CC(F)C5)cc4Cl)cn3)n2)CC1 [Example 197, 4-(1-(2-Chloro-4-((3-fluoroazetidin-1-yl)methyl)phenyl)-1H-imidazol-4-yl)-N-(1-(methyl-sulfonyl)piperidin-4-yl)-5-(trifluoro-methyl)pyrimidin-2-amine] | ≤ 50
8 | CN(C)C1CCN(c2ccc(-n3cnc(-c4nc(NC5CCN(S(C)(=O)=O)CC5)ncc4C(F)(F)F)c3)c(Cl)c2)C1 (centres unmarked) [Example 143, 4-(1-(2-Chloro-4-(3-(dimethylamino)-pyrrolidin-1-yl)-phenyl)-1H-imidazol-4-yl)-N-(1-(methylsulfonyl)-piperidin-4-yl)-5-(trifluoromethyl)-pyrimidin-2-amine] | ≤ 50
9 | CS(=O)(=O)N1CCC(Nc2ncc(C(F)(F)F)c(-c3cn(-c4ccc(C#N)nc4C(F)F)cn3)n2)CC1 [Example 100, 6-(Difluoromethyl)-5-(4-(2-((1-(methyl-sulfonyl)piperidin-4-yl)amino)-5-(trifluoro-methyl)pyrimidin-4-yl)-1H-imidazol-1-yl)picolinonitrile] | ≤ 50
10 | CS(=O)(=O)N1CCC(Nc2ncc(C(F)(F)F)c(-c3cn(-c4cccc(CO)c4Cl)cn3)n2)CC1 [Example 84, (2-Chloro-3-(4-(2-((1-(methylsulfonyl)piperidin-4-yl)amino)-5-(trifluoromethyl)pyrimidin-4-yl)-1H-imidazol-1-yl)phenyl)methanol] | ≤ 50
11 | C[C@]1(O)CCN(Cc2ccc(-n3cnc(-c4nc(NC5CCN(S(C)(=O)=O)CC5)ncc4C(F)(F)F)c3)c(Cl)c2)C1 [Example 204, (S)-1-(3-Chloro-4-(4-(2-((1-(methyl-sulfonyl)piperidin-4-yl)amino)-5-(trifluoromethyl)-pyrimidin-4-yl)-1H-imidazol-1-yl)-benzyl)-3-methyl-pyrrolidin-3-ol] | ≤ 50
12 | Cc1nc(-c2nc(NC3CCN(S(C)(=O)=O)CC3)ncc2C(F)(F)F)cn1-c1ccc(N2CCN(C)CC2)cc1F [Example 103, 4-(1-(2-Fluoro-4-(4-methylpiperazin-1-yl)phenyl)-2-methyl-1H-imidazol-4-yl)-N-(1-(methylsulfonyl)piperidin-4-yl)-5-(trifluoromethyl)pyrimidin-2-amine] | ≤ 50
13 | Cc1nc(CN2CC(C)(C)C2)ccc1-n1cnc(-c2nc(NC3CCN(S(C)(=O)=O)CC3)ncc2C(F)(F)F)c1 [Example 265, 4-(1-(6-((3,3-Dimethylazetidin-1-yl)methyl)-2-methylpyridin-3-yl)-1H-imidazol-4-yl)-N-(1-(methylsulfonyl)piperidin-4-yl)-5-(trifluoromethyl)pyrimidin-2-amine] | ≤ 50
14 | CS(=O)(=O)N1CCC(Nc2ncc(C(F)(F)F)c(-c3cn(-c4ccc(OC(F)F)cc4C#N)cn3)n2)CC1 [Example 126, 5-(Difluoromethoxy)-2-(4-(2-((1-(methylsulfonyl)piperidin-4-yl)amino)-5-(trifluoromethyl)pyrimidin-4-yl)-1H-imidazol-1-yl)benzonitrile] | ≤ 50

Now from value to molecule:

Row | IC50 [nM] | SMILES
15 | ≤ 50 | COc1nccc(-n2cnc(-c3nc(N[C@H]4CCN(S(C)(=O)=O)C[C@H]4F)ncc3C(F)(F)F)c2)c1Cl [Example 300, 4-(1-(3-Chloro-2-methoxypyridin-4-yl)-1H-imidazol-4-yl)-N-((3R,4S)-3-fluoro-1-(methylsulfonyl)piperidin-4-yl)-5-(trifluoromethyl)pyrimidin-2-amine]
16 | ≤ 50 | CCN1CCN(Cc2cc(F)c(-n3cnc(-c4nc(N[C@@H]5CCN(S(C)(=O)=O)C[C@H]5F)ncc4C(F)(F)F)c3)c(F)c2)CC1 [Example 392, 4-(1-(4-((4-Ethylpiperazin-1-yl)methyl)-2,6-difluorophenyl)-1H-imidazol-4-yl)-N-((3R,4R)-3-fluoro-1-(methyslulfonyl)piperidin-4-yl)-5-(trifluoromethyl)pyrimidin-2-amine]
17 | ≤ 50 | COc1nccc(-n2cc(-c3nc(N[C@H]4CCN(S(C)(=O)=O)C[C@H]4F)ncc3C(F)(F)F)nc2C)c1F [Example 311, N-((3R,4S)-3-Fluoro-1-(methylsulfonyl)piperidin-4-yl)-4-(1-(3-fluoro-2-methoxypyridin-4-yl)-2-methyl-1H-imidazol-4-yl)-5-(trifluoromethyl)pyrimidin-2-amine]
18 | ≤ 50 | CCN1CCN(Cc2cc(F)c(-n3cnc(-c4nc(N[C@@H]5CCN(S(C)(=O)=O)C[C@H]5F)ncc4C(F)(F)F)c3)c(Cl)c2)CC1 [Example 403, 4-(1-(2-Chloro-4-((4-ethylpiperazin-1-yl)methyl)-6-fluorophenyl)-1H-imidazol-4-yl)-N-((3R,4R)-3-fluoro-1-(methylsulfonyl)piperidin-4-yl)-5-(trifluoromethyl)pyrimidin-2-amine]
19 | ≤ 50 | Cc1nc(-c2nc(NC3CCN(S(C)(=O)=O)CC3)ncc2C(F)(F)F)cn1-c1cccc(C#N)c1F [Example 304, 2-Fluoro-3-(2-methyl-4-(2-((1-(methylsulfonyl)piperidin-4-yl)amino)-5-(trifluoromethyl)pyrimidin-4-yl)-1H-imidazol-1-yl)benzonitrile]
20 | ≤ 50 | CN(C)Cc1ccc(-n2cnc(-c3nc(NC4CCN(S(C)(=O)=O)CC4)ncc3C(F)(F)F)c2)c(F)c1 [Example 267, 4-(1-(4-((Dimethylamino)methyl)-2-fluorophenyl)-1H-imidazol-4-yl)-N-(1-(methylsulfonyl)piperidin-4-yl)-5-(trifluoromethyl)pyrimidin-2-amine]
21 | ≤ 50 | Cc1nc(-c2nc(N[C@H]3CCN(S(C)(=O)=O)C[C@H]3F)ncc2C(F)(F)F)cn1-c1cccc(C#N)c1F [Example 305, 2-Fluoro-3-(4-(2-(((3R,4S)-3-fluoro-1-(methylsulfonyl)piperidin-4-yl)amino)-5-(trifluoromethyl)pyrimidin-4-yl)-2-methyl-1H-imidazol-1-yl)benzonitrile]
22 | ≤ 50 | CCN(CC)C1CCN(c2ccc(-n3cc(-c4nc(NC5CCN(S(C)(=O)=O)CC5)ncc4C(F)(F)F)nc3C)c(F)c2)CC1 [Example 413, 4-(1-(4-(4-(Diethylamino)piperidin-1-yl)-2-fluorophenyl)-2-methyl-1H-imidazol-4-yl)-N-(1-(methylsulfonyl)piperidin-4-yl)-5-(trifluoromethyl)pyrimidin-2-amine]
23 | ≤ 50 | CN1CCN(Cc2ccc(-n3cnc(-c4nc(NC5CCN(S(C)(=O)=O)CC5)ncc4C(F)(F)F)c3)c(Cl)c2)C(=O)C1 [Example 451, 1-(3-Chloro-4-(4-(2-((1-(methylsulfonyl)piperidin-4-yl)amino)-5-(trifluoromethyl)pyrimidin-4-yl)-1H-imidazol-1-yl)benzyl)-4-methylpiperazin-2-one]
24 | ≤ 50 | CC(C)NCc1cc(F)c(-n2cnc(-c3nc(NC4CCN(S(C)(=O)=O)CC4)ncc3C(F)(F)F)c2)c(Cl)c1 [Example 394, 4-(1-(2-Chloro-6-fluoro-4-((isopropylamino)methyl)phenyl)-1H-imidazol-4-yl)-N-(1-(methylsulfonyl)piperidin-4-yl)-5-(trifluoromethyl)pyrimidin-2-amine]
25 | ≤ 50 | CS(=O)(=O)N1CC[C@H](Nc2ncc(C(F)(F)F)c(-c3cn(-c4ccnc(C#N)c4Cl)cn3)n2)[C@H](F)C1 [Example 308, 3-Chloro-4-(4-(2-(((3R,4S)-3-fluoro-1-(methylsulfonyl)piperidin-4-yl)amino)-5-(trifluoromethyl)pyrimidin-4-yl)-1H-imidazol-1-yl)picolinonitrile]
26 | ≤ 50 | Cc1nc(-c2nc(NC3CCN(S(C)(=O)=O)CC3)ncc2C(F)(F)F)cn1-c1ccc(CN2CC(C(C)(C)O)C2)cc1F [Example 282, 2-(1-(3-Fluoro-4-(2-methyl-4-(2-((1-(methylsulfonyl)piperidin-4-yl)amino)-5-(trifluoromethyl)pyrimidin-4-yl)-1H-imidazol-1-yl)benzyl)azetidin-3-yl)propan-2-ol]
